Marks after values point to notes of the source that are not given here.
Assays:
aortic ring explants [1] = test: rat aortic ring sprouting assay (ex vivo neovessel sprouting); format: cell-based; details: day 4, 50 ng/ml PEDF peptide, 50 ng/ml VEGF-A, 20 ng/ml FGF-2, MCDB131, 1% FBS, Matrigel
Description: To further confirm the neovessel development promoted by PEDF peptides, rat aortic ring sprouting assay was performed. Thoracic aortas were removed from euthanized rats and gently stripped of peri-aortic fibroadipose tissue. Aortas were sectioned into about 2-mm length rings, which were then embedded in a growth factor-reduced Matrigel. Gels containing the aortic rings were polymerized in 12-well plates incubated at 37° C. for 30 minutes. 1 ml of MCDB131 medium supplemented with 100 units/ml penicillin and […] streptomycin, 1% FBS, and a supplemental agent (50 ng/ml VEGF-A, 20 ng/ml FGF-2, or 50 ng/ml 29-mer, 24-mer, 20-mer, Mo 29-mer, Mo 20-mer, 25-mer, or 18-mer) were added to the Matrigel-containing explants. The cultures were propagated at 37° C. in a humidified incubator for up to 4 days, with media changes every other day. Neovessel sprouting was assessed until day 4 using an inverted microscope platform (Leica) with bright-field optics; representative photographs were provided in FIG. 6. Quantification of neovessel sprouting was assessed using Image-Pro Plus 6.0 software (Dendrites program). The experiment was repeated in triplicate.

[2] = tested on: adductor magnus muscle arterioles; test: hindlimb ischemia model, arteriole density (α-SMA) in adductor magnus muscle; format: in vivo, C57BL/6 wild-type mice; details: two weeks after surgery, sustained-release formulation (Bolus: bolus 29-mer)
Description: The small artery densities (α-SMA positive cells surrounding the whole circumference of the vessel) were measured and images were taken from 10 randomly-selected areas of adductor magnus muscle (200× magnification) in each sample, and blinded quantification was performed in triplicate by manually counting within each section; values from five sections were then averaged and expressed as arteriole density per mm^2.
(§1) 6-week-old female C57BL/6 wild-type mice were anesthetized by an intraperitoneal injection of a mixture of zoletil (6 mg/kg) and xylazine (3 mg/kg). Hair was removed from the hindquarter with a depilating cream. To establish hindlimb ischemia, unilateral external iliac and femoral arteries and veins were ligated, cut, and excised. After surgery, the mice were randomly assigned to several experimental groups (n=6, each group) and treated as follows. In the blank control group, the mice were treated with 50 μl of blank alginate gel, whereas in the bolus control group, the mice received the bolus formulation containing 29-mer. In the PEDF peptide/alginate gel treatment groups, the mice received 50 μl of the sustained-release formulation, which comprised either 29-mer, 24-mer, or 20-mer. Additionally, in a PEDF 18-mer control group, mice were treated with a sustained-release formulation containing a PEDF 18-mer peptide. Treatments were applied by way of a single intramuscular injection to the gracilis muscle immediately after femoral artery and vein excision operation. The incision was closed after the wound was irrigated with sterile saline.
To investigate the arteriogenic effect of the present sustained-release formulation, adductor magnus muscles (located at the same level as femoral artery excision and in which arteriogenesis responsible for establishing collateral circulation is expected to be found) were harvested from animals in each experimental condition, two weeks after the surgery. Arterioles in muscle cross sections were identified by immunohistological staining for vascular smooth muscle cells (α-SMA; brown), and nuclei were labeled with hematoxylin; representative photographs were provided in FIG. 5. Quantitative analysis was also performed and the results were summarized in Table 3, and the data were expressed as α-SMA-positive arterioles per mm^2 in the peri-injury region.

ischemic hindlimbs = test: hindlimb ischemia model, laser Doppler perfusion imaging of limb blood perfusion; format: in vivo, C57BL/6 wild-type mice
Description: as §1
A laser Doppler perfusion imaging (LDPI) analyzer (Moor Instruments, USA) was used to quantify hindlimb blood perfusion before surgery (pre OP), immediately after surgery (post OP), and over time after surgery. To minimize vasoconstriction by anesthetic heat loss, animals were kept on a heating plate at 37° C. for 5 min before measurement. Representative LDPI images illustrating the blood perfusion of ischemic hindlimbs over a time period of 4 weeks were provided in FIG. 2 in which dark blue color represents low blood flow. Blood perfusion is expressed as LDPI index representing the ratio of operated (ischemic) versus non-operated (non-ischemic) limb blood flow of the same mouse, and the results were summarized in FIG. 3 and Table 1 (n 6).

tibialis anterior muscle = test: hindlimb ischemia model, tibialis anterior muscle necrosis/fibrosis and centrally nucleated fibers; format: in vivo, C57BL/6 wild-type mice; details: two weeks after surgery, sustained-release formulation (Bolus: bolus 29-mer)
Description: The gracilis, adductor magnus, soleus, and tibialis muscles were fixed in 4% paraformaldehyde, dehydrated with graded ethanol series, and paraffinized. Fixed samples were de-paraffinized in xylene and rehydrated in a graded series of ethanol. Tissues were sliced into 5-μm sections. General histology was performed using H&E dye.
To ascertain the number of centrally nucleated muscle fibers, sections were stained with H&E and then photographed as described above. At least 100 stained fibers were randomly chosen from each photo. Muscle fibers were judged centrally nucleated if one or more nuclei were not located at the periphery of the fiber. The data were expressed as a % of the total number of muscle fibers counted. Results were evaluated from 6 sections per muscle section, and 10 mice at each group.
as §1
In most hindlimb ischemia models, tissue necrosis generally occurs in the muscles below the knee. For example, tibialis anterior muscle, which is distant to the gracilis muscle where the treatment was administered, often undergoes extensive necrosis with regeneration after femoral artery excision. The intensity of Masson's trichrome blue color staining depended on the content of collagen fibers in the investigated tissue, and fibrosis is the result of necrosis. […] Results from representative samples are illustrated in FIGS. 4A and 4B.
Statistical analyses regarding injured area (necrotic area+fibrotic area) and numbers of centrally nucleated fibers were also performed at two weeks after the surgery, and the results were summarized in Table 2. The injured area is expressed as the percent of total stained area (%), and the centrally nucleated fibers is expressed as the total number of muscle fibers counted (%).

aortic ring explants [3] = test: rat aortic ring sprouting assay (ex vivo neovessel sprouting); format: cell-based; details: aortic rings cultured with PEDF peptide, in words
tendon stem cells (TSCs) = test: TSCs proliferation assay (BrdU labeling) in vitro; format: cell-based, New Zealand White rabbits; details: TSCs passage 4; 50 nM peptide, 5% FBS, 24 hours; BrdU pulse-labeling
Description: New Zealand White rabbits (6-8 months old, 3.0-4.0 kg) were used in this study. Achilles tendons were removed from the rabbits by cutting through their bony attachments. The tendon sheath was stripped away and the core portion of the tendons was minced into small fragments. Each 100 mg of fragment was then digested in a solution containing 3 mg/mL of type I collagenase and 4 mg/mL of dispase in 1 ml Dulbecco's Modified Eagle Medium (DMEM-high glucose) at 37° C. for 2 hours. The resultant cell suspension was centrifuged at 1,000 rpm for 15 minutes to obtain a cell pellet which was then resuspended in a growth medium consisting of DMEM supplemented with 10% heat inactivated fetal bovine serum (FBS), 100 μM 2-mercaptoethanol, and 100 U/ml penicillin and 100 μg/ml streptomycin. For passage, near-confluent cells were harvested with 0.25% trypsin and then 1×10^5 subcultured cells were further cultured in medium.
The TSCs at passage 4 were seeded at gelatin-coated slide in a 6-well plate at a density of 2×10^5 cells per well and cultured in growth medium (DMEM+10% FBS) for 24 hours before being replaced by a basal growth medium with 5% FBS only (control group) or with 5% FBS plus an additional 50 nM of PEDF-derived peptide (i.e., 29-mer, 24-mer, 20-mer, 18-mer, Mo 29-mer, or Mo 20-mer) for 24 hours. For BrdU labeling assay, BrdU (final concentration, 10 μM) was added to the culture for 4 hours. After fixing with 4% paraformaldehyde, cells were exposed to cold methanol for 2 minutes, and then treated with 1 N HCl at RT for 1 hour before performing immunofluorescence. The phenotype of passage 4 TSC was determined by immunocytochemistry of nucleostemin and type I collagen. Almost all of expanded TSCs were nucleostemin and type I collagen-double positive cells.
It has been reported that during the tendon healing process, tendon stem cells (TSCs) would proliferate and differentiate into tenocytes. To investigate whether present PEDF peptides would induce the proliferation of TSCs in vitro, tendons stem cells were isolated and cultured as described in the “Materials and Methods” section. The purity of TSCs was confirmed by a TSC marker, nucleostemin, as well as the expression of type I collagen by TSCs; together, these analyses indicated a TSC purity of near 100% (data not shown). The proliferation of TSCs was confirmed by BrdU pulse-labeling for 2 hours. Quantitative analysis of the level of BrdU-positive cells was performed as described above, and the results were summarized in Table 8.

Substance: FGF2: well-known angiogenic factor used as positive control, 20 ng/ml [reference compound]
- Neovessel Sprouting Fold (aortic ring explants [1]): 3.5* fold of untreated aortic ring
- Neovessel Sprouting Fold (aortic ring explants [1]; listed as FGF-2): ~3.5 fold of untreated aortic ring

Substance: EQRTESIIHRALYYDLIS [18-mer, control PEDF peptide without the SLGA residues, reference compound]
- Arteriole Density per mm^2 (α-SMA-positive arterioles) [2]: 4.0 ± 0.58 per mm^2
- Ischemic/Non-ischemic Perfusion Ratio (%) 7 days (ischemic hindlimbs; 7 days after surgery, 50 μl sustained-release alginate gel formulation, 10 μM peptide (Bolus: bolus formulation of 29-mer), single intramuscular injection to gracilis muscle): 23.8 ± 4.5%
- Ischemic/Non-ischemic Perfusion Ratio (%) 14 days (ischemic hindlimbs; 14 days after surgery, sustained-release formulation (Bolus: bolus 29-mer), single intramuscular injection): 30.3 ± 0.94%
- Ischemic/Non-ischemic Perfusion Ratio (%) 21 days (ischemic hindlimbs; 21 days after surgery, sustained-release formulation (Bolus: bolus 29-mer), single intramuscular injection): 46.8 ± 4.3%
- Ischemic/Non-ischemic Perfusion Ratio (%) 28 days (ischemic hindlimbs; 28 days (four weeks) after surgery, sustained-release formulation (Bolus: bolus 29-mer), single intramuscular injection): 52.8 ± 7.4%
- Ischemic/Non-ischemic Perfusion Ratio (%) Pre OP (ischemic hindlimbs; before surgery (baseline), LDPI): 104.5 ± 2.5%
- Ischemic/Non-ischemic Perfusion Ratio (%) Post OP (ischemic hindlimbs; immediately after surgery, LDPI): 7.5 ± 0.67%
- blood perfusion as compared with blank control (ischemic hindlimbs; over 4 weeks after surgery, in words): did not exhibit improved blood perfusion
- Centrally nucleated fibers (%) (tibialis anterior muscle): 20.5 ± 3.3%
- Injured Area (%) (necrotic area + fibrotic area, percent of total stained area) (tibialis anterior muscle): 78.5 ± 5.1%
- neovessel phenotype by dual immunofluorescence (α-SMA / isolectin B4) (aortic ring explants [3]): barely detected

Substance: SLGAEHRTESVIHRALYYDLITNPDIHST [Mo 29-mer, synthetic peptide derived from mouse PEDF]
- BrdU Labeling Index (%) (tendon stem cells (TSCs)): 33.2 ± 6.6 %
- Neovessel Sprouting Fold (aortic ring explants [1]): 6.1* fold of untreated aortic ring

Substance: SLGAEHRTESVIHRALYYDL [Mo 20-mer, synthetic peptide derived from mouse PEDF]
- BrdU Labeling Index (%) (tendon stem cells (TSCs)): 31.8 ± 3.1 %
- Neovessel Sprouting Fold (aortic ring explants [1]): 6.4* fold of untreated aortic ring

Source: US9884012B2, “Use of PEDF-derived polypeptides for promoting muscle or tendon regeneration or arteriogenesis” (MacKay Memorial Hospital, priority 2012, dated 2018)
